# Assay results reported in publication PMC10157890, “Lysine Deacetylase Substrate Selectivity: Distinct Interaction Surfaces Drive Positive and Negative Selection for Residues Following Acetyllysine” (Biochemistry, 2023).
# Biological target: T1, full-length human KDAC6 (Homo sapiens, UniProt Q9UBN7)
# T1 construct: A pFastbac1 construct containing full-length human KDAC6 (UniProtKB Q9UBN7) with a C-terminal His6 tag; His6 (C); made in house; host or cells: ExpiSf9 insect cells (baculovirus)
# T1 sequence (Q9UBN7 1-1215): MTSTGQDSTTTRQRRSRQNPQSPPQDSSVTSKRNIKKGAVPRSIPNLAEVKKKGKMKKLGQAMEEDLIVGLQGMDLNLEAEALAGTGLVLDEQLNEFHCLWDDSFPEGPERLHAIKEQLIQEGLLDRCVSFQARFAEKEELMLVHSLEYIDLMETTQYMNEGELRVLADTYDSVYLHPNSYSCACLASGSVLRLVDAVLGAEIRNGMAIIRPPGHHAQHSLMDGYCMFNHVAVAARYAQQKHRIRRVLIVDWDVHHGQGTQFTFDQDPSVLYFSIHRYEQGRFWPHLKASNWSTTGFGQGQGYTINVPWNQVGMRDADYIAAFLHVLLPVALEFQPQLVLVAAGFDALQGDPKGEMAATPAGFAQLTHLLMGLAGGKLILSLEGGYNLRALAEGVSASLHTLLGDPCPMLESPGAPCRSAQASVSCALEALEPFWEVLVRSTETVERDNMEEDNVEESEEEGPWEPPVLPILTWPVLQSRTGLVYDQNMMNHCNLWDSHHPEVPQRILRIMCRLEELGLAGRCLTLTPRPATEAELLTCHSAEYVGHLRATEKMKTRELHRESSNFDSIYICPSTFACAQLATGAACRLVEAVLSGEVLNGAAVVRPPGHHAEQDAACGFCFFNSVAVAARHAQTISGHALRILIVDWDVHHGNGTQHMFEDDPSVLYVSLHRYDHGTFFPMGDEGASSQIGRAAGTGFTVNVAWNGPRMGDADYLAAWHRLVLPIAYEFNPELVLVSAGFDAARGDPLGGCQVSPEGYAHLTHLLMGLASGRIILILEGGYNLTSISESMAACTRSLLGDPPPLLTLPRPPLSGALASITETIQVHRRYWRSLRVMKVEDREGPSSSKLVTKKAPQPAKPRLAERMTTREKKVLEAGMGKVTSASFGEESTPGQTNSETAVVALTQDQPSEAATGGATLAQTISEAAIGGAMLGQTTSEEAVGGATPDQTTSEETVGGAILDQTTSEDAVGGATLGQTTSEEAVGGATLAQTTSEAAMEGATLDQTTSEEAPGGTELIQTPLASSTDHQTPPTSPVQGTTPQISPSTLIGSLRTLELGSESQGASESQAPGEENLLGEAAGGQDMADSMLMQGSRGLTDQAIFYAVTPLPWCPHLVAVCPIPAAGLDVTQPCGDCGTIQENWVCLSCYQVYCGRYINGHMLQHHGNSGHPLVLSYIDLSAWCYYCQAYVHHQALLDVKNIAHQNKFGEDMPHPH
# Assay: Activity of KDAC6 with putative substrate peptides (verification of substrate preferences)
# Format: biochemical
# Details: endpoint, 100 μM peptide, 50–200 nM KDAC, 25 °C, pH 7.6, 15–60 min, buffer also containing 100 mM KCl; average ± SD; SD
# Method: Peptide substrates were synthesized to >95% purity (GenScript) with N-terminal acetylation and C-terminal amidation. For endpoint experiments, 100 μM peptide substrates were reacted with 50–200 nM KDAC at 25 °C at pH 7.6 for 15–60 min. Deacetylation was measured using a fluorescamine-based assay that was previously described in detail.[18] Reported raw activity for each enzyme–substrate pair is the average and standard deviation for n ≥ 4 unless otherwise noted. Normalized activity was calculated by defining the activity of each KDAC with the FRK^acWR peptide equal to 1. Statistical significance was determined by calculating p values using two-tailed t-tests, assuming similar variance. The significance threshold was set at p ≤ 0.01 with the Bonferroni correction for multiple testing. Kinetic parameters were determined for a subset of enzyme–substrate pairs. In these experiments, 50–200 nM KDAC was reacted with ≥5 substrate concentrations from 10 to 2500 nM and ≥3 timepoints at intervals of 3–20 min were collected for each substrate concentration. Deacetylation was measured using the same method as the endpoint experiments, and KM and kcat were calculated from the observed activity of each reaction as previously described.[18] Activity assays with peptides for verification of substrate preferences were performed as for endpoint experiments, except in a buffer also containing 100 mM KCl. Statistical analysis of the correlation of the presence of particular substrate residues with activity was performed using Fisher’s exact test with a significance threshold of p ≤ 0.05.
# In contrast with the peptides tested thus far, which were all derivatives of a single substrate, these panels consisted of peptides derived from human proteins in which the lysine residue is known to be acetylated in cells.[3],[5],[42],[50]−[72] For each enzyme, peptides were included either because they contained an acetyllysine that has been identified as a putative substrate of the KDAC from published cellular studies and/or because the peptide contained a residue that appeared to drive KDAC activity in our analysis. For KDAC6, we observed that of the set of peptides that were tested, six contained tryptophan or tyrosine directly after the acetyllysine. Remarkably, all of these peptides appeared in the top seven most reactive substrates tested (Table 2). Assuming that phenylalanine would behave similarly to tryptophan and tyrosine, we determined that there was a statistically significant correlation between whether or not a peptide was deacetylated by KDAC6 and the presence of tyrosine, tryptophan, or phenylalanine in the +1 position (p = 0.011). […] Thus, our conclusion that the presence of these aromatic residues in the +1 position relative to the acetyllysine is a major factor promoting KDAC6 activity has predictive utility and provides some understanding of the underlying mechanistic basis.
row,"specific activity, KDAC6 with putative substrates",Substance
1,0.026 ± 0.024 s^–1,TDGK^acVFQ [acetyllysine peptide from 60S ribosomal protein L24 (P83731)]
2,0.042 ± 0.009 s^–1,LSGK^acGNP [acetyllysine peptide from catenin β-1 (P35222)]
3,0.009 ± 0.007 s^–1,LDHK^acFDL [acetyllysine peptide from tubulin α-1A chain (P68369)]
4,0.010 ± 0.006 s^–1,"YFSK^acHN [acetyllysine peptide from peroxiredoxin-2 (P32119), C-terminus, not amidated]"
5,0.06 ± 0.03 s^–1,GAGK^acHVP [acetyllysine peptide from tubulin α-1A chain (P68369)]
6,0.022 ± 0.006 s^–1,QATK^acDAG [acetyllysine peptide from heat shock 70 kDa protein 1A/1B (P0DMV8/P0DMV9)]
7,0.011 ± 0.009 s^–1,IIDK^acSQL [acetyllysine peptide from serine/threonine-protein kinase SIK2 (Q9H0K1)]

# Same assay, conditions: endpoint, 100 μM peptide, buffer also containing 100 mM KCl; limit of reliable detection 0.0013 s^–1
row,Substance,"specific activity, KDAC6 with putative substrates (no activity above limit)"
1,PSPK^acVSD [acetyllysine peptide from tubulin β-3 chain (Q13509)],– (– indicates no activity above the limit of reliable detection (0.0013 s^–1))
2,LISK^acIRE [acetyllysine peptide from tubulin β (Q13509)],– (– indicates no activity above the limit of reliable detection (0.0013 s^–1))
3,FFHK^acVNE [acetyllysine peptide from Mitofusin-1 (Q8IWA4)],– (– indicates no activity above the limit of reliable detection (0.0013 s^–1))
4,PDRK^acPFP [acetyllysine peptide from E3 SUMO-protein ligase EGR2 (P11161)],– (– indicates no activity above the limit of reliable detection (0.0013 s^–1))
5,TLSK^acLHE [acetyllysine peptide from protein diaphanous homologue 3 (Q9NSV4)],– (– indicates no activity above the limit of reliable detection (0.0013 s^–1))
6,VLEK^acLGE [acetyllysine peptide from serine/threonine-protein kinase 4 (Q13043)],– (– indicates no activity above the limit of reliable detection (0.0013 s^–1))
7,SVRK^acGIM,– (– indicates no activity above the limit of reliable detection (0.0013 s^–1))
8,PEAK^acSLL [acetyllysine peptide from RAC-α serine/threonine-protein kinase (P31749)],– (– indicates no activity above the limit of reliable detection (0.0013 s^–1))
9,DLAK^acVQR [acetyllysine peptide from tubulin α-1A chain (P68369)],– (– indicates no activity above the limit of reliable detection (0.0013 s^–1))
